Numbers after ± are expanded uncertainties.
Assays:
[1] = 101.33 kPa, Liquid; for speed of sound: Sing-around technique in a fixed-path interferometer; for mass density: Vibrating tube method; for viscosity: Falling or rolling sphere viscometry
[2] = molar heat capacity at constant pressure; settings: 101.33 kPa, Liquid, DSC

CCCCn1cc[n+](CCC(C)C)c1.O=S(=O)([N-]S(=O)(=O)C(F)(F)F)C(F)(F)F
Settings	mass density, [1] [kg/m3]	molar heat capacity at constant pressure, [2] [J/K/mol]	speed of sound, [1] [m/s]
287.15 K	1328.1 ± 9.6	–	1243.8 ± 5
289.15 K	1326.3 ± 9.6	–	1238.9 ± 5
291.15 K	1324.4 ± 9.6	–	1234.1 ± 5
293.15 K	1322.6 ± 9.5	681.82 ± 26	1229.3 ± 5
294.15 K	–	682.92 ± 26	–
295.15 K	1320.8 ± 9.5	683.63 ± 26	1224.5 ± 5
296.15 K	–	684.34 ± 26	–
297.15 K	1319.1 ± 9.5	685.11 ± 27	1219.8 ± 5
298.15 K	–	685.77 ± 27	–
299.15 K	1317.3 ± 9.5	686.48 ± 27	1215.1 ± 5
300.15 K	–	687.15 ± 27	–
301.15 K	1315.5 ± 9.4	687.82 ± 27	1210.4 ± 5
302.15 K	–	688.48 ± 27	–
303.15 K	1313.7 ± 9.4	689.15 ± 27	1205.8 ± 5
304.15 K	–	689.91 ± 27	–
305.15 K	1311.9 ± 9.4	690.67 ± 27	1201.2 ± 5
306.15 K	–	691.33 ± 27	–
307.15 K	1310.2 ± 9.4	692.19 ± 27	1196.6 ± 5
308.15 K	–	692.95 ± 27	–
309.15 K	1308.4 ± 9.3	693.62 ± 27	1192 ± 5
310.15 K	–	694.42 ± 27	–
311.15 K	1306.6 ± 9.3	695.14 ± 27	1187.5 ± 5
312.15 K	–	695.9 ± 27	–
313.15 K	1304.9 ± 9.3	696.66 ± 27	1183 ± 5
314.15 K	–	697.47 ± 27	–
315.15 K	1303.1 ± 9.3	698.23 ± 27	1178.4 ± 5
316.15 K	–	698.94 ± 27	–
317.15 K	1301.3 ± 9.2	699.65 ± 27	1173.9 ± 5
318.15 K	–	700.56 ± 27	–
319.15 K	1299.6 ± 9.2	701.27 ± 27	1169.5 ± 5
320.15 K	–	702.08 ± 27	–
321.15 K	1297.8 ± 9.2	702.84 ± 27	1165 ± 5
322.15 K	–	703.7 ± 27	–
323.15 K	1296.1 ± 9.2	704.55 ± 27	1160.6 ± 5
324.15 K	–	705.36 ± 27	–
325.15 K	1294.3 ± 9.1	706.26 ± 27	1156.2 ± 5
326.15 K	–	707.07 ± 27	–
327.15 K	1292.6 ± 9.1	707.93 ± 27	1151.8 ± 5
328.15 K	–	708.78 ± 27	–
329.15 K	1290.8 ± 9.1	709.59 ± 27	1147.4 ± 5
330.15 K	–	710.4 ± 28	–
331.15 K	1289.1 ± 9.1	711.16 ± 28	1143 ± 5
332.15 K	–	711.97 ± 28	–
333.15 K	1287.4 ± 9	712.68 ± 28	1138.7 ± 5
334.15 K	–	713.49 ± 28	–
335.15 K	1285.6 ± 9	714.25 ± 28	1134.3 ± 5
336.15 K	–	714.92 ± 28	–
337.15 K	1283.9 ± 9	715.82 ± 28	1130 ± 5
338.15 K	–	716.58 ± 28	–
339.15 K	1282.2 ± 9	717.34 ± 28	1125.7 ± 5
340.15 K	–	718.15 ± 28	–
341.15 K	1280.4 ± 8.9	718.86 ± 28	1121.5 ± 5
342.15 K	–	719.53 ± 28	–
343.15 K	1278.7 ± 8.9	720.2 ± 28	1117.3 ± 5
344.15 K	–	720.81 ± 28	–
345.15 K	–	721.43 ± 28	–
346.15 K	–	722.24 ± 28	–
347.15 K	–	723.05 ± 28	–
348.15 K	–	724.28 ± 28	–

CCCCn1cc[n+](C(CC)CC)c1.O=S(=O)([N-]S(=O)(=O)C(F)(F)F)C(F)(F)F
Settings	mass density, [1] [kg/m3]	molar heat capacity at constant pressure, [2] [J/K/mol]	speed of sound, [1] [m/s]	viscosity, [1] [mPa·s]
287.15 K	1329.4 ± 9.6	–	1238.8 ± 5	–
289.15 K	1327.6 ± 9.6	–	1233.8 ± 5	–
291.15 K	1325.8 ± 9.6	–	1228.9 ± 5	–
293.15 K	1324 ± 9.6	–	1224.1 ± 5	159.5 ± 9.4
294.15 K	–	692.9 ± 27	–	148.8 ± 8.6
295.15 K	1322.2 ± 9.5	694.28 ± 27	1219.3 ± 5	–
296.15 K	–	695.14 ± 27	–	–
297.15 K	1320.4 ± 9.5	695.85 ± 27	1214.5 ± 5	–
298.15 K	–	696.61 ± 27	–	118.2 ± 6.4
299.15 K	1318.6 ± 9.5	697.52 ± 27	1209.8 ± 5	–
300.15 K	–	698.18 ± 27	–	–
301.15 K	1316.8 ± 9.5	698.85 ± 27	1205.1 ± 5	–
302.15 K	–	699.65 ± 27	–	–
303.15 K	1315 ± 9.4	700.37 ± 27	1200.4 ± 5	89.55 ± 4.5
304.15 K	–	701.22 ± 27	–	–
305.15 K	1313.2 ± 9.4	701.89 ± 27	1195.8 ± 5	–
306.15 K	–	702.56 ± 27	–	–
307.15 K	1311.5 ± 9.4	703.46 ± 27	1191.2 ± 5	–
308.15 K	–	704.22 ± 27	–	–
309.15 K	1309.7 ± 9.4	704.93 ± 27	1186.7 ± 5	–
310.15 K	–	705.84 ± 27	–	–
311.15 K	1307.9 ± 9.3	706.6 ± 27	1182.1 ± 5	–
312.15 K	–	707.21 ± 27	–	–
313.15 K	1306.2 ± 9.3	707.88 ± 27	1177.6 ± 5	54.83 ± 2.6
314.15 K	–	708.69 ± 27	–	–
315.15 K	1304.4 ± 9.3	709.45 ± 27	1173.1 ± 5	–
316.15 K	–	710.35 ± 28	–	–
317.15 K	1302.6 ± 9.3	711.16 ± 28	1168.6 ± 5	–
318.15 K	–	711.87 ± 28	–	–
319.15 K	1300.9 ± 9.2	712.97 ± 28	1164.2 ± 5	–
320.15 K	–	713.78 ± 28	–	–
321.15 K	1299.1 ± 9.2	714.58 ± 28	1159.8 ± 5	–
322.15 K	–	715.35 ± 28	–	–
323.15 K	1297.4 ± 9.2	716.3 ± 28	1155.4 ± 5	35.98 ± 1.7
324.15 K	–	717.1 ± 28	–	–
325.15 K	1295.7 ± 9.2	718.2 ± 28	1151 ± 5	–
326.15 K	–	718.67 ± 28	–	–
327.15 K	1293.9 ± 9.1	719.58 ± 28	1146.6 ± 5	–
328.15 K	–	720.2 ± 28	–	–
329.15 K	1292.2 ± 9.1	721.15 ± 28	1142.3 ± 5	–
330.15 K	–	721.72 ± 28	–	–
331.15 K	1290.5 ± 9.1	722.48 ± 28	1137.9 ± 5	–
332.15 K	–	723.24 ± 28	–	–
333.15 K	1288.7 ± 9.1	723.9 ± 28	1133.6 ± 5	25.07 ± 1.2
334.15 K	–	724.81 ± 28	–	–
335.15 K	1287 ± 9	725.43 ± 28	1129.3 ± 5	–
336.15 K	–	726.23 ± 28	–	–
337.15 K	1285.3 ± 9	726.9 ± 28	1125 ± 5	–
338.15 K	–	727.47 ± 28	–	–
339.15 K	1283.6 ± 9	728.09 ± 28	1120.8 ± 5	–
340.15 K	–	729.04 ± 28	–	–
341.15 K	1281.8 ± 9	729.42 ± 28	1116.6 ± 5	–
342.15 K	–	730.13 ± 28	–	–
343.15 K	1280.1 ± 8.9	731.13 ± 28	1112.4 ± 5	18.26 ± 0.87
344.15 K	–	731.94 ± 28	–	–
345.15 K	–	732.61 ± 28	–	–
346.15 K	–	733.37 ± 28	–	–
347.15 K	–	733.89 ± 28	–	–
348.15 K	–	734.79 ± 28	–	–
353.15 K	–	–	–	13.84 ± 0.66

CCCC[n+]1ccn(C2CCCC2)c1.O=S(=O)([N-]S(=O)(=O)C(F)(F)F)C(F)(F)F
Settings	mass density, [1] [kg/m3]	molar heat capacity at constant pressure, [2] [J/K/mol]	speed of sound, [1] [m/s]
287.15 K	1384.9 ± 10	–	1298.1 ± 5
289.15 K	1383.1 ± 10	–	1293.1 ± 5
291.15 K	1381.2 ± 10	–	1288.1 ± 5
293.15 K	1379.4 ± 10	648.54 ± 25	1283.2 ± 5
294.15 K	–	649.39 ± 25	–
295.15 K	1377.5 ± 10	650.01 ± 25	1278.3 ± 5
296.15 K	–	650.62 ± 25	–
297.15 K	1375.7 ± 10	651.28 ± 25	1273.4 ± 5
298.15 K	–	651.99 ± 25	–
299.15 K	1373.8 ± 10	652.8 ± 25	1268.6 ± 5
300.15 K	–	653.46 ± 25	–
301.15 K	1372 ± 10	654.08 ± 25	1263.8 ± 5
302.15 K	–	654.84 ± 25	–
303.15 K	1370.2 ± 10	655.4 ± 25	1259 ± 5
304.15 K	–	656.21 ± 25	–
305.15 K	1368.4 ± 10	657.01 ± 25	1254.2 ± 5
306.15 K	–	657.63 ± 25	–
307.15 K	1366.5 ± 10	658.43 ± 26	1249.4 ± 5
308.15 K	–	659.14 ± 26	–
309.15 K	1364.7 ± 10	659.9 ± 26	1244.7 ± 5
310.15 K	–	660.66 ± 26	–
311.15 K	1362.9 ± 10	661.42 ± 26	1240 ± 5
312.15 K	–	662.22 ± 26	–
313.15 K	1361.1 ± 10	663.07 ± 26	1235.3 ± 5
314.15 K	–	663.88 ± 26	–
315.15 K	1359.3 ± 10	664.73 ± 26	1230.6 ± 5
316.15 K	–	665.35 ± 26	–
317.15 K	1357.5 ± 10	666.15 ± 26	1226 ± 5
318.15 K	–	666.77 ± 26	–
319.15 K	1355.7 ± 10	667.43 ± 26	1221.4 ± 5
320.15 K	–	668.19 ± 26	–
321.15 K	1353.9 ± 10	668.94 ± 26	1216.7 ± 5
322.15 K	–	669.75 ± 26	–
323.15 K	1352.1 ± 10	670.51 ± 26	1212.1 ± 5
324.15 K	–	671.26 ± 26	–
325.15 K	1350.3 ± 10	672.02 ± 26	1207.6 ± 5
326.15 K	–	672.78 ± 26	–
327.15 K	1348.5 ± 9.9	673.49 ± 26	1203 ± 5
328.15 K	–	674.44 ± 26	–
329.15 K	1346.7 ± 9.9	675.15 ± 26	1198.5 ± 5
330.15 K	–	675.95 ± 26	–
331.15 K	1344.9 ± 9.9	676.8 ± 26	1193.9 ± 5
332.15 K	–	677.56 ± 26	–
333.15 K	1343.1 ± 9.8	678.41 ± 26	1189.4 ± 5
334.15 K	–	679.22 ± 26	–
335.15 K	1341.3 ± 9.8	680.21 ± 26	1185 ± 5
336.15 K	–	680.88 ± 26	–
337.15 K	1339.6 ± 9.8	681.63 ± 26	1180.5 ± 5
338.15 K	–	682.34 ± 26	–
339.15 K	1337.8 ± 9.8	683.01 ± 26	1176.1 ± 5
340.15 K	–	683.91 ± 26	–
341.15 K	1336 ± 9.7	684.76 ± 27	1171.7 ± 5
342.15 K	–	685.47 ± 27	–
343.15 K	1334.3 ± 9.7	686.27 ± 27	1167.3 ± 5
344.15 K	–	686.94 ± 27	–
345.15 K	–	687.65 ± 27	–
346.15 K	–	688.45 ± 27	–
347.15 K	–	689.07 ± 27	–
348.15 K	–	690.11 ± 27	–

From the NIST ThermoML archive (doi:10.1016/j.fluid.2017.03.021)
